This is an account of results in publication PMC6271856, “Leishmanicidal Evaluation of Tetrahydroprotoberberine and Spirocyclic Erythrina-Alkaloids” (Molecules, 2014).

SMILES strings stand for the structures. ≈ marks a conversion by molar mass, not a printed value. Where two headings read alike, the source gives them in different places. Where only a bound is given, the exact number is not on record here.

Data set [1] deals with Leishmania amazonensis promastigote forms. Nature of the data set: Leishmanicidal MTT assay on promastigote forms. The note with it: for IC50: Leishmania amazonensis, read-out: L. amazonensis IC50. The data set is classed as cell-based. (Tetrazolium assays rely on reduction of a dye to a coloured formazan, in cell work by metabolically active cells.)
The nature of data set [2]: Macrophages in vitro cytotoxic assay (MTT). The conditions noted are these: mouse, J774A.1 macrophage cells.
Another data set in a line: in vitro. The conditions noted are these: mouse.
Where [3] appears, read: promastigote forms, 48 h treatment, MTT.

As a reminder, the IC50 is the concentration that inhibits the measured activity by half. As for `C[C@@H]1[C@H](O)[C@@H](C)/C=C/C=C/C=C/C=C/C=C/C=C/C=C/[C@H](O[C@@H]2O[C@H](C)[C@@H](O)[C@H](N)[C@@H]2O)C[C@@H]2O[C@](O)(C[C@@H](O)C[C@@H](O)[C@H](O)CC[C@@H](O)C[C@@H](O)CC(=O)O[C@H]1C)C[C@H](O)[C@H]2C(=O)O` [Amphotericin B, reference compound], the half-maximal inhibitory concentration (IC50) in data set [1] (setting [3]) amounted to 0.2 µg/mL (≈ 0.216 µM).
Turning to `COc1ccc2c(c1O)[C@@H]1Cc3cc4c(cc3CN1CC2)OCO4` [Compound 1], the CC50 at 48 h in data set [2] was found to be 51.2 µg/mL (≈ 157 µM). Moreover, the “SI (Selectivity Index = CC50 drug/IC50 drug)” value in data set [1] (CC50 J774 macrophages / IC50 L. amazonensis promastigotes) was determined as 284.55. Besides, the IC50 in data set [1] (setting [3]) turned out to be 0.18 µg/mL (≈ 0.553 µM).
As to `COc1cc2c(cc1OC)CN1CCc3ccc(OC)c(O)c3[C@@H]1C2` [Compound 2], the CC50 at 48 h in data set [2] came to 96.6 µg/mL (≈ 283 µM). In addition, the IC50 in data set [1] (setting [3]) was greater than 1000 µg/mL.
For the molecule `CO[C@H]1C=CC2=CCN3CCc4cc5c(cc4[C@]23C1)OCO5` [Compound 3, erythraline], in data set [1], the “SI (Selectivity Index = CC50 drug/IC50 drug)” value is listed as 1.06. Further, the IC50 in data set [1] (48 h) was determined as 65.3 µg/mL (≈ 220 µM). Further, in the data set “in vitro”, the CC50 worked out at 69.3 µg/mL (≈ 233 µM).
Take `COC1C=CC2=CC(=O)N3CCc4cc5c(cc4C23C1)OCO5` (stereo not drawn) [Compound 4, 8-oxoerythraline]: in data set [1] (setting [3]), the IC50 is greater than 1000 µg/mL. Moreover, the CC50 in “in vitro” was greater than 1000 µg/mL.
In the case of `COC1C=CC2=CC(=O)N3C=Cc4cc5c(cc4C23C1)OCO5` (stereo not drawn) [Compound 6, Crystamidine], the “SI (Selectivity Index = CC50 drug/IC50 drug)” value in data set [1] is on record as 0.82. In addition, the IC50 in data set [1] (setting [3]) came out at 71.5 µg/mL (≈ 231 µM). The CC50 in the data set “in vitro” was determined as 59 µg/mL (≈ 191 µM).
In the case of `COC1C=CC2=CCN3CC(O)c4cc5c(cc4C23C1)OCO5` (stereo not drawn) [Compound 7, Erythrinine], the “SI (Selectivity Index = CC50 drug/IC50 drug)” value in data set [1] is 1.52. Moreover, in data set [1] (48 h), the half-inhibitory concentration (IC50) stood at 39.5 µg/mL (≈ 126 µM). This molecule also registered a CC50 in “in vitro” of 60 µg/mL (≈ 191 µM).
With `COc1cc2c(cc1O)[C@]13C[C@@H](OC)C=CC1=CCN3CC2` [Compound 8, Erysovine], the IC50 in data set [1] (48 h) is greater than 1000 µg/mL. Moreover, the CC50 in the data set “in vitro” is greater than 1000 µg/mL.
For the molecule `COc1cc2c(cc1OC)C13CC(OC)C(=O)C=C1CCN3CC2` (stereo not drawn) [Compound 9, Erythratidinone], the half-maximal inhibitory concentration (IC50) in data set [1] (48 h) was greater than 1000 µg/mL. This molecule came in with a CC50 in the data set “in vitro” greater than 1000 µg/mL.
